Assay [1] deals with Normal human vaginal epithelial cells. As to the kind of experiment: Periodic acid Schiff (PAS) assay for glycogen-positive cells. As to conditions: 10^-5 M, five days after treatment, manually counted, vs control medium. It counts as cell-based. The procedure:
(§1) Normal human vaginal epithelial cells from Clonetics (NHVE 5164) were subcultured in basal PrEBM (Clonetics CC 3165) within 96 well plates at 37° C., 5% CO2. Cells were then exposed to medium containing mannose-6-phosphate (Sigma, M3655) at a concentration of 10^−5 M. Control groups received culture medium without mannose-6-phosphate. Cell proliferation was examined three days later and glycogen positive cells were detected five days after mannose-6-phosphate treatment.
A periodic acid Schiff (PAS) assay was used to detect glycogen levels. Before the assay, cells were washed with PBS and fixed with a 10 vol % Formalin/ethanol solution for 1 hour at room temperature, followed by continuous rinsing with deionized (DI) water for 1 minute. A Harleco® PAS Assay Kit (from EM Science 64945/43) was used for glycogen detection. The basic principle is that the hydroxy groups on the glycogen units were first oxidized into aldehyde groups by periodic acid, and the aldehyde groups reacted with Schiff's agent to produce a red colorant. The specific assay operations were all done at room temperature as follows: • 1. Periodic acid reagent was added to the well/chamber and allowed to stand for 10 minutes. • 2. […] The numbers of glycogen-stained positive cells were manually counted under microscope. The data was analyzed by student's t test, and p<0.05 was considered significant. […]

Assay [2] shares this test system. As to the kind of experiment: Cell proliferation, CellTiter 96 Aqueous One Solution. It counts as cell-based. As to conditions: 10^-5 M, three days after treatment, absorbance at 490 nm, vs control medium, p<0.05. The procedure:
as §1, with “treatment. Cell proliferation was examined by using CellTiter 96 Aqueous One Solution from Promega (#TB245). Twenty μl of the reagent was added to each well. The plates were returned to cell culture incubator for 3 hours. The absorbance in each well was measured at 490 nm with a microtiter reader.” for “treatment.”

This is an account of results in patent publication US20080057107A1, “COMPOSITIONS FOR VAGINAL TREATMENT” (Kimberly-Clark Worldwide, Inc., priority 2004, published 2008).

`O=C[C@@H](O)[C@@H](O)[C@H](O)[C@H](O)COP(=O)(O)O` [mannose-6-phosphate]: the “number of glycogen-positive cells” value in assay [1] was “significantly higher”. The vaginal cell proliferation entry in assay [2] is listed as “significantly (p<0.05) increased”.
